Experimental data as given in US20140220036A1, “METHODS FOR TREATING NEURODEGENERATIVE DISEASES AND FOR IDENTIFYING AGENTS USEFUL FOR TREATING NEURODEGENERATIVE DISEASES” (priority 2013, published 2014).

Tested on: h-tau42-dependent transmitter block
Assay: Oral administration of agents to squid, then presynaptic h-tau42 injection and recording of synaptic transmission
Assay type: in vivo, squid (Loligo paelli)
Conditions: systemic administration of agent
Description: Squid received an oral dose of each agent effective for such inhibiting phosphorylation of the tau protein. At 24 hours after the first dose a second dose was given, and the electrophysiological experiments were performed 1 hour after the second feeding. It was determine that after 24 hours of the double administration, an effective concentration of each agent effective for such inhibiting phosphorylation of the tau protein was measured in the CNS of the gastrically intubated squid (n=10 squid). Synapses from the treated squid were microinjected at the presynaptic axon with h-tau42 (an approximate 80 nM final concentration h-tau42 (n=19), considering a 100× dilution factor. Pre- and post-synaptic potentials were recorded for 90 min.
The squid (Loligo paelli) stellate ganglia isolation from the mantle and the electrophysiological techniques used have been described previously (Llinás, et al., Proc. Natl. Acad. Sci. U.S.A. 1985; 82: 3035-3039). Two glass micropipette electrodes impaled the largest (most distal) presynaptic terminal digit at the synaptic junction site while the post-synaptic axon was impaled by one microelectrode at the junctional site. One of the pre-electrodes was used for pressure microinjection of h-tau42 and also supported voltage clamp current feedback, while the second monitored membrane potential. The total volume injected fluctuated between 0.1 and 1 pl. (Llinás, et al., Proc. Natl. Acad. Sci. U.S.A. 1985; 82: 3035-3039). The exact location of injection and the diffusion and steady-state distribution of the protein/fluorescent dye mix (0.001% dextran fluorescein) were monitored using a fluorescence microscope attached to a Hamamatsu camera system (Middlesex, N.J.). In all experiments a good correlation was observed between the localization of the fluorescence and the electrophysiological findings.
Following presynaptic and post-synaptic axon impalements and the determination of normal synaptic transmission (Llinás, et al., Proc. Natl. Acad. Sci. U.S.A. 1985; 82: 3035-3039; Llinás, et al. Proc. Natl. Acad. Sci. U.S.A. 1994; 91: 12990-12993; Lin, et al., Proc. Natl. Acad. Sci. U.S.A. 1990; 87: 8257-8261), the effect of human tau on synaptic release was evaluated by presynaptic microinjections administered under direct visualization using a fluorescent dye/protein mix, reaching a final concentration after diffusion of approximately 80 nM. (See, Materials and Methods) Presynaptic and post-synaptic potentials were recorded simultaneously under current-clamp configuration. Presynaptic spikes were activated every 5 minutes (low-frequency protocol). With this paradigm, it was determined that 5-10 minutes after an injection of h-tau42, a reduction of transmitter release could be observed. With further time, a total block of transmission resulted, within 30-40 minutes depending on the length of the release zone in the preterminal axon (see, e.g. FIG. 2). […] By contrast, following administration of each agent effective for such inhibiting phosphorylation of the tau protein to the squid (see bellow) h-tau42-dependent transmitter block was prevented (see, generally, Figures).

Compound | h-tau42 induced functional and biochemical abnormalities in the presynaptic axon
Cn1cnc(N)c2ncnc1-2 [3-methyladenine] | prevented or ameliorated
O=C1CN(/N=C/c2ccc(-c3ccc([N+](=O)[O-])cc3)o2)C(O)=N1 [Dantrolene] | prevented or ameliorated
Cn1cc(C2=C(c3coc4ccccc34)C(=O)NC2=O)c2cc(Br)ccc21 [ING-135] | prevented or ameliorated
[Cl-].[Li+] [LiCl] | prevented or ameliorated
C[S+]([O-])c1ccc(-c2nc(-c3ccncc3)c(-c3ccc(F)cc3)[nH]2)cc1 (centres unmarked) [SB203580] | prevented or ameliorated
Cn1cc(C2=C(c3ccc(Cl)cc3Cl)C(=O)NC2=O)c2ccccc21 [SB216763] | prevented or ameliorated
Xitospongin C | prevented or ameliorated

Tested on: fast axonal transport (FAT)
Assay: not given
Conditions: Kanaan et al. 2011; squid axons; cited from earlier work

Compound | effect on inhibition of axonal transport by PAD peptide
Cn1cc(C2=C(c3coc4ccccc34)C(=O)NC2=O)c2cc(Br)ccc21 [ING-135] | blocked
